Experimental data as given in paper PMC10766964, “Copper-catalyzed synthesis of pyrazolo[1,5-a]pyrimidine based triazole-linked glycohybrids: mechanistic insights and bio-applications” (Scientific Reports, 2024).
Like-named read-outs stand apart in the source and are kept apart here.

System: MDA-MB-231 (human breast cancer) cell line
Test: MTT cell viability assay in MDA-MB-231 cells
Format: cell-based
Settings: 72 h
Method: Thus, we screened the synthesized library of pyrazolo[1,5-a]pyrimidin-7-ols 4a–4i. Anticancer activity (in terms of growth inhibition/decreased cell viability with respect to control) of all synthesized compounds (n = 9) was investigated by MTT assay in MDA-MB-231 (human breast cancer) cell line at different concentrations for 72 h. […] Thus, it was aimed to investigate the anticancer activity of a synthesized library of triazole-linked glycohybrids of pyrazolo[1,5-a]pyrimidines. […] The MTT assay was used to investigate the anticancer activity of twenty-seven synthesized compounds on the growth inhibition and decrement in cell viability of MDA-MB-231 (human breast cancer). Different concentrations were tested for 72 h, and the results were compared to a control. MDA-MB-231, a human breast cancer cell line, was cultured under standard conditions. Specifically, they were grown in Dulbecco’s Modified Eagle’s Medium (DMEM) supplemented with 10% heat-inactivated Fetal Bovine Serum (FBS) and 1% penicillin–streptomycin. The cells were maintained as a monolayer in a 100 mm culture plate and were used for experiments before reaching their 8th passage. Subculturing was performed every third-day using trypsin EDTA treatment. All incubation and maintenance procedures were carried out in a humidified CO2 incubator at 37 °C. To evaluate cell viability, the MTT assay was conducted following standard procedures. After 72 h of cell incubation with or without each compound, cell viability was assessed using MTT (3-(4,5-dimethylthiazol-2-yl)-2,5-diphenyltetrazolium bromide), which is a colorimetric method for determining the number of viable cells in various assays including proliferation, cytotoxicity, or chemosensitivity. The MTT reagent was added to the cells after removal of the medium and incubated for 3 h at 37 °C in the CO2 incubator. The formazan product, which is […] in the tissue culture medium, was dissolved in DMSO, and the absorbance of the formazan product was directly measured at 595 nm using a multimode plate reader without additional processing. The absorbance values are directly proportional to the number of viable cells in culture. The percentage of viable cells in each group was determined relative to the untreated control cells.

[1] = Table 1, MDA-MB-231, MTT, read-out: Cell Viability (%) ± SD
[2] = Table 2, MDA-MB-231, MTT, read-out: Cell viability (%) ± SD

CC(C)c1ccc(-c2cc(O)n3nccc3n2)cc1 [Compound 4g, 5-(4-isopropylphenyl)pyrazolo[1,5-a]pyrimidin-7-ol]
viability at 10 µM [1]: 101 ± 5.51% | viability at 25 µM [1]: 98.1 ± 2.51% | viability at 50 µM [1]: 70.5 ± 5.69%

CC(=O)OC[C@H]1O[C@H](n2cc(COc3cc(-c4ccc5c(c4)OCO5)nc4ccnn34)nn2)[C@@H](OC(C)=O)[C@@H](OC(C)=O)[C@@H]1OC(C)=O [Compound 11i, (2R,3R,4S,5S,6S)-2-(acetoxymethyl)-6-(4-(((5-(benzo[d][1,3]dioxol-5-yl)pyrazolo[1,5-a]pyrimidin-7-yl)oxy)methyl)-1H-1,2,3-triazol-1-yl)tetrahydro-2H-pyran-3,4,5-triyl triacetate]
viability at 10 µM [2]: 97.5 ± 4.91% | viability at 25 µM [2]: 95.3 ± 3.6% | viability at 50 µM [2]: 93.9 ± 9.08%

CC(=O)OC[C@H]1O[C@@H](n2cc(COc3cc(-c4ccc(C(C)C)cc4)nc4ccnn34)nn2)[C@H](OC(C)=O)[C@@H](OC(C)=O)[C@@H]1OC(C)=O [Compound 9g, (2R,3R,4S,5R,6R)-2-(acetoxymethyl)-6-(4-(((5-(4-isopropylphenyl)pyrazolo[1,5-a]pyrimidin-7-yl)oxy)methyl)-1H-1,2,3-triazol-1-yl)tetrahydro-2H-pyran-3,4,5-triyl triacetate]
viability at 10 µM [2]: 110 ± 13.5% | viability at 25 µM [2]: 103 ± 3.51% | viability at 50 µM [2]: 68.5 ± 17.7%

CC(=O)OC[C@H]1O[C@H](n2cc(COc3cc(-c4ccc5ccccc5c4)nc4ccnn34)nn2)[C@@H](OC(C)=O)[C@@H](OC(C)=O)[C@@H]1OC(C)=O [Compound 11h, (2R,3R,4S,5S,6S)-2-(acetoxymethyl)-6-(4-(((5-(naphthalen-2-yl)pyrazolo[1,5-a]pyrimidin-7-yl)oxy)methyl)-1H-1,2,3-triazol-1-yl)tetrahydro-2H-pyran-3,4,5-triyl triacetate]
viability at 10 µM [2]: 101 ± 9.28% | viability at 25 µM [2]: 89.8 ± 2.22% | viability at 50 µM [2]: 82.5 ± 5.45%

COc1ccc(-c2cc(OCc3cn([C@H]4O[C@H](COC(C)=O)[C@@H](OC(C)=O)[C@H](OC(C)=O)[C@@H]4OC(C)=O)nn3)n3nccc3n2)cc1 [Compound 11b, (2R,3R,4S,5S,6S)-2-(acetoxymethyl)-6-(4-(((5-(4-methoxyphenyl)pyrazolo[1,5-a]pyrimidin-7-yl)oxy)methyl)-1H-1,2,3-triazol-1-yl)tetrahydro-2H-pyran-3,4,5-triyl triacetate]
viability at 10 µM [2]: 99.5 ± 10.2% | viability at 25 µM [2]: 95.2 ± 10.6% | viability at 50 µM [2]: 70.4 ± 10.5%

Oc1cc(-c2ccc(Br)cc2)nc2ccnn12 [Compound 4c]
viability at 10 µM [1]: 100 ± 4.01% | viability at 25 µM [1]: 99.1 ± 3.93% | viability at 50 µM [1]: 96.5 ± 2.89%

CC(=O)OC[C@H]1O[C@@H](n2cc(COc3cc(-c4ccc5c(c4)OCO5)nc4ccnn34)nn2)[C@H](OC(C)=O)[C@@H](OC(C)=O)[C@@H]1OC(C)=O [Compound 9i, (2R,3R,4S,5R,6R)-2-(acetoxymethyl)-6-(4-(((5-(benzo[d][1,3]dioxol-5-yl)pyrazolo[1,5-a]pyrimidin-7-yl)oxy)methyl)-1H-1,2,3-triazol-1-yl)tetrahydro-2H-pyran-3,4,5-triyl triacetate]
viability at 10 µM [2]: 85.1 ± 4.09% | viability at 25 µM [2]: 82.5 ± 2.58% | viability at 50 µM [2]: 80.4 ± 7.36%

CC(=O)OC[C@H]1O[C@@H](n2cc(COc3cc(-c4ccc(F)cc4)nc4ccnn34)nn2)[C@H](OC(C)=O)[C@@H](OC(C)=O)[C@H]1OC(C)=O [Compound 10e, (2R,3S,4S,5R,6R)-2-(acetoxymethyl)-6-(4-(((5-(4-fluorophenyl)pyrazolo[1,5-a]pyrimidin-7-yl)oxy)methyl)-1H-1,2,3-triazol-1-yl)tetrahydro-2H-pyran-3,4,5-triyl triacetate]
viability at 10 µM [2]: 78.4 ± 9.97% | viability at 25 µM [2]: 68.6 ± 10.1% | viability at 50 µM [2]: 71.3 ± 6.17%

CC(=O)OC[C@H]1O[C@H](n2cc(COc3cc(-c4ccc(C)cc4)nc4ccnn34)nn2)[C@@H](OC(C)=O)[C@@H](OC(C)=O)[C@@H]1OC(C)=O [Compound 11a, (2R,3R,4S,5S,6S)-2-(acetoxymethyl)-6-(4-(((5-(p-tolyl)pyrazolo[1,5-a]pyrimidin-7-yl)oxy)methyl)-1H-1,2,3-triazol-1-yl)tetrahydro-2H-pyran-3,4,5-triyl triacetate]
viability at 10 µM [2]: 98 ± 7.7% | viability at 25 µM [2]: 91.8 ± 7.09% | viability at 50 µM [2]: 96.7 ± 9.12%

CC(=O)OC[C@H]1O[C@@H](n2cc(COc3cc(-c4ccc(C(F)(F)F)cc4)nc4ccnn34)nn2)[C@H](OC(C)=O)[C@@H](OC(C)=O)[C@@H]1OC(C)=O [Compound 9f, (2R,3R,4S,5R,6R)-2-(acetoxymethyl)-6-(4-(((5-(4-(trifluoromethyl)phenyl)pyrazolo[1,5-a]pyrimidin-7-yl)oxy)methyl)-1H-1,2,3-triazol-1-yl)tetrahydro-2H-pyran-3,4,5-triyl triacetate]
viability at 10 µM [2]: 92.2 ± 8.51% | viability at 25 µM [2]: 88.8 ± 8.75% | viability at 50 µM [2]: 73.8 ± 7.02%
